Measurements from publication PMC6245447, “Effect of Dehydroaltenusin-C12 Derivative, a Selective DNA Polymerase α Inhibitor, on DNA Replication in Cultured Cells” (Molecules, 2008).
pIC50: −log10 of the molar value. Read-outs that look alike come from different tables or passages of the source.

Target: T1, DNA polymerase α (calf thymus pol α) (Bos taurus, UniProt A0AAA9TD94)
T1 construct: gene POLA1; pol α purified from calf thymus
T1 sequence (A0AAA9TD94 1-1441): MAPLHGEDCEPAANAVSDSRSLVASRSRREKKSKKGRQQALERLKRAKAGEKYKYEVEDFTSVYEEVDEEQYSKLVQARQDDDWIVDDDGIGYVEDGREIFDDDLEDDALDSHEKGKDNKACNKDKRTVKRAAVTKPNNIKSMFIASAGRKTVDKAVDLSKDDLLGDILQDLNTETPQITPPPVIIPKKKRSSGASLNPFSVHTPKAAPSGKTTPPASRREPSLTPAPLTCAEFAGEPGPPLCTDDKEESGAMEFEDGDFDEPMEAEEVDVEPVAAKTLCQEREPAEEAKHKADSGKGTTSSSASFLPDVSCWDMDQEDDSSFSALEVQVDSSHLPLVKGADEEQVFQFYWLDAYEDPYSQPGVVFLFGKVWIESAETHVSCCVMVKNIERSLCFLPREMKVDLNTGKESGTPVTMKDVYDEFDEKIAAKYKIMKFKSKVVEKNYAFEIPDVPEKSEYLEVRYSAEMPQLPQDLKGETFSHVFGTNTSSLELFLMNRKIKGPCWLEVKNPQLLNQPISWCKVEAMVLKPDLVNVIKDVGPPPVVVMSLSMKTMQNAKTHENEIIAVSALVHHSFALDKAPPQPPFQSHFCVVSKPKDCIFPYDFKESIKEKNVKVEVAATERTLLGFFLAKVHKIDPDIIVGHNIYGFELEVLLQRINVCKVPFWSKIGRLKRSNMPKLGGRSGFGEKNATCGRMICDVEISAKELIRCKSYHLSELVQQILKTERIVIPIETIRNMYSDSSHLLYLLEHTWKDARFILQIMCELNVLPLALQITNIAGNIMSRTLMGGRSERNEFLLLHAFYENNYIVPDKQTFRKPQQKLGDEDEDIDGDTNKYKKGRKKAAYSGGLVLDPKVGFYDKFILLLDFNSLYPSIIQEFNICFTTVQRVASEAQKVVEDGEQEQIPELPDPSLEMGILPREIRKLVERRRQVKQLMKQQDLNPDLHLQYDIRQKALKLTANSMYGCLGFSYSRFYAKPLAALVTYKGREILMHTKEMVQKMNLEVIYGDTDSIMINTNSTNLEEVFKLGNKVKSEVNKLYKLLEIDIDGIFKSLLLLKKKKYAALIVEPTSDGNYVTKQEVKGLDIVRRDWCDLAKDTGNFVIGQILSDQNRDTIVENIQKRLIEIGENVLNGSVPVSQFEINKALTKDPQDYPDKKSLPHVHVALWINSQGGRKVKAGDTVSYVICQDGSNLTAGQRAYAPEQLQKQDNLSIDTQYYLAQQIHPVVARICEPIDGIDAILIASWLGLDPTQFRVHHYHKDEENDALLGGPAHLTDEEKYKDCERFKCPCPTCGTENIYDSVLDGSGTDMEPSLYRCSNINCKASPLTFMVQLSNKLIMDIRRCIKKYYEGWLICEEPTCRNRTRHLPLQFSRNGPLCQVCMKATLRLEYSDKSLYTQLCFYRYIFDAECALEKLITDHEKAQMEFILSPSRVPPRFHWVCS
Assay: [3H]-dTTP incorporation polymerase assay on poly(dA)/oligo(dT)[…]-18 with purified pol α
Type: biochemical

| SMILES | pIC50 | pIC50 (read-out: IC50) |
| --- | --- | --- |
| C[C@@]1(CO)[C@H](O)CC[C@@]2(C)[C@H]1CC[C@H]1C[C@@H]3C[C@@]12CC[C@]3(O)CO [compound 3, aphidicolin] | 4.84 |  |
| COc1cc(O)c2c(c1)C1=CC(=O)C(O)=CC1(C)OC2=O (stereo not drawn) [compound 1, Dehydroaltenusin] |  | 5.00 |
| CCCCCCCCCCCCOc1cc(O)c2c(c1)C1=CC(=O)C(O)=CC1(C)OC2=O (stereo not drawn) [compound 2, C12] |  | 5.85 |
